Measured values taken from patent US11639503B2, “Anti-chymase aptamer and use for same” (RIBOMIC INC., priority 2017, dated 2023).

What follows are substances tested against T1, chymase purified from human skin mast cell (native, Calbiochem) (Homo sapiens, UniProt P23946) (assay: chymase enzyme activity inhibition, native substrate angiotensin I (His-Leu fluorescence)). Conditions: Table 3; angiotensin I as substrate; mean of 2 or 3 measurements; >1 = no inhibitory activity up to 1 μM.
T1 construct: Here, the native is chymase purified from human skin mast cell; purchased Calbiochem; host or cells: human skin mast cell (tissue-derived)
T1 sequence (P23946 22-247): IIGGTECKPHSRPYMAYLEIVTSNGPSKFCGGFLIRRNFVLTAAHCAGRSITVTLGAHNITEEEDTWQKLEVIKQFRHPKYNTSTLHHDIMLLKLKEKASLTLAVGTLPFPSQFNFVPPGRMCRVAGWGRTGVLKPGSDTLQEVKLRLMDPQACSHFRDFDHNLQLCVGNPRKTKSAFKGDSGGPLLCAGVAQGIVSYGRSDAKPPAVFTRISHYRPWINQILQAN
Format: biochemical
Method: A second method of evaluation employs a native substrate. A useful native substrate for chymase is angiotensin I. Here, His-Leu, a peptide fragment released upon degradation of angiotensin I, is fluorescently derivatized, and the fluorescence intensity therefrom is quantified.
In the assay, an enzyme reaction is carried out in 50 μL of solution C. First, 0.3-0.75 ng of chymase (recombinant, manufactured by SIGMA; or native, manufactured by Calbiochem) is diluted in solution C to obtain 5 μL chymase solution. Each nucleic acid is prepared in solution C to obtain 25 μL solutions. 5 μL of each chymase dilution and 25 μL of each nucleic acid solution are mixed, and then the mixture is incubated at 37° C. for 5 minutes. Separately, 20 μL of 125 μM angiotensin I (manufactured by Peptide Institute, Inc.) is prepared in solution C and incubated at 37° C. for 5 minutes. The angiotensin I solution is added to the mixture of chymase and nucleic acid, and the enzyme reaction is initiated. After the reaction was allowed to proceed at 37° C. for 90 minutes, 25 μL of ice-cooled 30% trichloroacetic acid solution is added to terminate the reaction. The entire mixture is centrifuged at 4° C., 14000 rpm for 10 minutes, and 30 μL of the resulting supernatant is used for the subsequent reaction for fluorescent derivatization.
After 30 μL of the supernatant is added to a 96-well plate (Black, manufactured by Costar), 15 μL of 2% o-phthalaldehyde (manufactured by SIGMA) solution in methanol and 170 μL of 0.3M NaOH solution are mixed in each well, and the plate is allowed to stand at room temperature for 10 minutes. Subsequently, 25 μL of 3M HCl solution is added to terminate the reaction. The plate is set to the microplate reader SpectraMax190 (manufactured by Molecular Devices Corporation), and the fluorescence intensity is determined at an excitation wavelength of 355 nm and a fluorescence wavelength of 460 nm.
For control, samples are treated and analyzed in the same manner in two cases: use of SEQ ID NO: 58 (negative control) and use of chymostatin, a known chymotrypsin-like serine protease inhibitor (positive control). In both cases, fluorescence intensity obtained at 0 minute reaction time serves as a blank determination. Taking the fluorescence intensity detected with the addition of an equal volume of solution C, in place of each nucleic acid, in the chymase enzyme reaction as 100%, the inhibitory rate for each test substance is calculated, and the inhibitor concentration required to cause a 50% inhibition of the enzyme activity (IC50) is determined.
Whether the nucleic acids shown by SEQ ID NO: 9 and 10 inhibit the enzyme activity of chymase was determined by the following method. Angiotensin I is converted by chymase to angiotensin II, during which a peptide fragment His-Leu is released. Since the peptide His-Leu is fluorescently derivatized by o-phthalaldehyde, its fluorescence intensity can be quantitatively measured.
The total volume of solution for an enzyme reaction in the assay was set to 50 μL, and the reaction was performed in solution C buffer. At first, native (manufactured by Calbiochem) was diluted with solution C to give 5 μL thereof. Here, the native is chymase purified from human skin mast cell. The nucleic acid was serially diluted with solution C at a concentration of 0.0027-2 μM to give 25 μL thereof. The chymase solution (5 μL) and the nucleic acid solution (25 μL) were mixed, and the mixture was incubated at 37° C. for 5 min. On the other hand, […] angiotensin I (manufactured by PEPTIDE INSTITUTE, INC.) was prepared in solution C to give 20 μL thereof, which was incubated at 37° C. for 5 min. The angiotensin I solution was added to a mixture of chymase and nucleic acid to start an enzyme reaction. The final chymase concentration of the reaction solution was 0.5 nM, and the final substrate concentration was 50 μM. […]
“20 (GAUGAUCGGACAUAACAUUGUUGGGGUGUCA; 2'-fluoro at CU, RNA at AG, backbone not given here) [compound 20]” was tested, and the IC50 was 1.8 nM. With “17 (GAUGAUCGGACAUAACAUUGUUGGGGUGUCAA; 2'-fluoro at CU, RNA at AG, backbone not given here) [compound 17]” the IC50 was 1.4 nM. Work on “16 (GGCAGAUGAUCGGACAUAACAUUGUUGGGGUGUCAA; 2'-fluoro at CU, RNA at AG, backbone not given here) [compound 16]” yielded an IC50 of 2 nM. “15 (GAUGAUCGGACAUAACAUUGUUGGGGUGUCAAGCC; 2'-fluoro at CU, RNA at AG, backbone not given here) [compound 15]” showed an IC50 of 1.4 nM. Work on “14 (GGCAGAUGAUCGGACAUAACAUUGUUGGGGUGUCAAGCC; 2'-fluoro at CU, RNA at AG, backbone not given here) [compound 14]” yielded an IC50 of 6.8 nM. Substance “11 (GGGUCAGAUGAUCGGACAUAACAUUGUUGGGGUGUCAAGGCCC; 2'-fluoro at CU, RNA at AG, backbone not given here) [compound 11]” has an IC50 of 54.7 nM. In the case of “12 (GACAUAACAUUGUUGGGGUGUC; 2'-fluoro at CU, RNA at AG, backbone not given here) [compound 12]”, the IC50 is reported as > 1000 nM. For “18 (UGAUCGGACAUAACAUUGUUGGGGUGUCAA; 2'-fluoro at CU, RNA at AG, backbone not given here) [compound 18]”, the IC50 was 2.1 nM. “19 (AUCGGACAUAACAUUGUUGGGGUGUCAA; 2'-fluoro at CU, RNA at AG, backbone not given here) [compound 19]” was tested, and the IC50 was 14.4 nM.

Same assay, conditions: Table 4; angiotensin I as substrate; mean of 2 or 3 measurements
“17(17) (GAUGAUCGGACAUAACAUUGUUGGGGUGUCAA; aptamer; 2'-O-methyl, idT end and other modifications, positions not given here)” gave an IC50 of 0.19 nM. In the case of “17 (GAUGAUCGGACAUAACAUUGUUGGGGUGUCAA; 2'-fluoro at CU, RNA at AG, backbone not given here) [compound 17]”, the IC50 is reported as 1.4 nM. With “17(3) (GAUGAUCGGACAUAACAUUGUUGGGGUGUCAA; aptamer; 2'-O-methyl, idT end and other modifications, positions not given here)” the IC50 was 5.66 nM. With “17(6) (GAUGAUCGGACAUAACAUUGUUGGGGUGUCAA; aptamer; 2'-O-methyl, idT end and other modifications, positions not given here)” the IC50 was 0.14 nM. With “17(21) (GAUGAUCGGACAUAACAUUGUUGGGGUGUCAA; aptamer; 2'-O-methyl, idT end and other modifications, positions not given here)” the IC50 was 0.19 nM. For “17(5) (GAUGAUCGGACAUAACAUUGUUGGGGUGUCAA; aptamer; 2'-O-methyl, idT end and other modifications, positions not given here)”, the IC50 was 0.17 nM. With “17(1) (GAUGAUCGGACAUAACAUUGUUGGGGUGUCAA; 2'-O-methyl, idT end and other modifications, positions not given here)” the IC50 was 44.4 nM. “17(10) (GAUGAUCGGACAUAACAUUGUUGGGGUGUCAA; aptamer; 2'-O-methyl, idT end and other modifications, positions not given here)” showed an IC50 of 0.13 nM. For “17(16) (GAUGAUCGGACAUAACAUUGUUGGGGUGUCAA; aptamer; 2'-O-methyl, idT end and other modifications, positions not given here)”, the IC50 was 0.18 nM. “17(23) (GAUGAUCGGACAUAACAUUGUUGGGGUGUCAA; aptamer; 2'-O-methyl, idT end and other modifications, positions not given here)” was tested, and the IC50 was 0.16 nM. “17(19) (GAUGAUCGGACAUAACAUUGUUGGGGUGUCAA; aptamer; 2'-O-methyl, idT end and other modifications, positions not given here)” was tested, and the IC50 was 0.19 nM. Substance “17(2) (GAUGAUCGGACAUAACAUUGUUGGGGUGUCAA; aptamer; 2'-O-methyl, idT end and other modifications, positions not given here)” has an IC50 of 0.21 nM. “17(25) (GAUGAUCGGACAUAACAUUGUUGGGGUGUCAA; 2'-O-methyl, idT end and other modifications, positions not given here)” was tested, and the IC50 was 0.2 nM. “17(8) (GAUGAUCGGACAUAACAUUGUUGGGGUGUCAA; aptamer; 2'-O-methyl, idT end and other modifications, positions not given here)” showed an IC50 of 0.13 nM. With “17(9) (GAUGAUCGGACAUAACAUUGUUGGGGUGUCAA; aptamer; 2'-O-methyl, idT end and other modifications, positions not given here)” the IC50 was 0.16 nM.

Same assay, conditions: Table 6; angiotensin I as substrate; mean of 2 or 3 measurements
“33(14) (AUGAUCGGACAUAACUAAUUAGGGGUGUCAA; aptamer; modified variant with 2'-O-methyl and end modifications, pattern not given here)” gave an IC50 of 0.075 nM. “33(1) (AUGAUCGGACAUAACUAAUUAGGGGUGUCAA; aptamer; modified variant with 2'-O-methyl and end modifications, pattern not given here)” was tested, and the IC50 was 0.074 nM. “17 (GAUGAUCGGACAUAACAUUGUUGGGGUGUCAA; 2'-fluoro at CU, RNA at AG, backbone not given here) [compound 17]” gave an IC50 of 1.4 nM. “33(7) (AUGAUCGGACAUAACUAAUUAGGGGUGUCAA; aptamer; modified variant with 2'-O-methyl and end modifications, pattern not given here)” showed an IC50 of 0.071 nM. For “33(6) (AUGAUCGGACAUAACUAAUUAGGGGUGUCAA; aptamer; modified variant with 2'-O-methyl and end modifications, pattern not given here)”, the IC50 was 0.053 nM. With “33(13) (AUGAUCGGACAUAACUAAUUAGGGGUGUCAA; aptamer; modified variant with 2'-O-methyl and end modifications, pattern not given here)” the IC50 was 0.069 nM. “33(16) (AUGAUCGGACAUAACUAAUUAGGGGUGUCAA; aptamer; modified variant with 2'-O-methyl and end modifications, pattern not given here)” was tested, and the IC50 was 0.063 nM. With “33(10) (AUGAUCGGACAUAACUAAUUAGGGGUGUCAA; aptamer; modified variant with 2'-O-methyl and end modifications, pattern not given here)” the IC50 was 0.071 nM. “33(3) (AUGAUCGGACAUAACUAAUUAGGGGUGUCAA; aptamer; modified variant with 2'-O-methyl and end modifications, pattern not given here)” showed an IC50 of 0.071 nM. Substance “33(9) (AUGAUCGGACAUAACUAAUUAGGGGUGUCAA; listed as RNA, chemistry not fully specified)” has an IC50 of 1.35 nM. Work on “33(15) (AUGAUCGGACAUAACUAAUUAGGGGUGUCAA; aptamer; modified variant with 2'-O-methyl and end modifications, pattern not given here)” yielded an IC50 of 0.072 nM. In the case of “33(4) (AUGAUCGGACAUAACUAAUUAGGGGUGUCAA; aptamer; modified variant with 2'-O-methyl and end modifications, pattern not given here)”, the IC50 is reported as 0.072 nM. Work on “33(11) (AUGAUCGGACAUAACUAAUUAGGGGUGUCAA; aptamer; modified variant with 2'-O-methyl and end modifications, pattern not given here)” yielded an IC50 of 0.051 nM.
